Results published in PMC11333937 (Science translational medicine, 2024).
Read-outs that look alike come from different tables or passages of the source.

Assays:
[1] = tested on: MERS-CoV; assay type: cell-based; conditions: HAE, two donors, 10, 1, 0.1 μM, MOI 0.5, 72 hpi
[2] = tested on: SARS-CoV-2 Omicron (B.1.1.529/BA.1); conditions: mouse, in vivo
[3] = tested on: LLC-MK2-TMPRSS2 cells
[4] = tested on: SARS-CoV-2 WA/1; test: microbe, parasite or virus in culture; assay type: cell-based; conditions: Severe acute respiratory syndrome coronavirus 2, read-out: EC50, inhibition of SARS-CoV-2 replication
[5] = tested on: SARS-CoV Urbani; assay type: cell-based; conditions: HAE, two donors, 10, 1, 0.1 μM, MOI 0.5, 72 hpi
[6] = tested on: SARS-CoV-2 WA/1; assay type: cell-based
[7] = not told; cited from earlier work
[8] = tested on: primary human airway epithelial (HAE) cells
[9] = tested on: SARS-like bat-CoV RsSHC014; assay type: in vivo, mouse
[10] = tested on: bat-CoV RsSHC014; assay type: cell-based
[11] = Mouse GS-5245 pharmacokinetic study; conditions: 30 mg/kg GS-5245 oral, timepoints over 24 hr, three mouse strains
[12] = tested on: SARS-CoV-2 Omicron BA.1; assay type: cell-based
[13] = tested on: A549-hACE2 cells
[14] = direct oral dosing of GS-441524, non-human primates; cited from earlier work

Compound: CC(C)C(=O)OC[C@H]1O[C@@](C#N)(c2ccc3c(N)ncnn23)[C@H](O)[C@@H]1O [GS-5245]
- infectious virus production (PFU in apical washes) [1]: dose-dependent reduction in infectious virus production
- ATS ALI and DAD scores [2]: Unlike ATS ALI scores (Fig. 6D), DAD scores were different
- lung viral titers relative to vehicle [2]: lower lung viral titers
- macroscopic lung pathology [2]: less macroscopic lung pathology
- cytotoxicity [3]: without cytotoxicity
- EC50 [4]: 740 nM
- infectious virus production (PFU in apical washes) [5]: dose-dependent reduction in infectious virus production
- infectious virus production (PFU in apical washes) [6]: dose-dependent reduction in infectious virus production
- cellular permeability [7]: increased cellular permeability over GS-441524
- cytotoxicity in HAE [8]: without measurable cytotoxicity
- viral titers and gross lung pathology ([9]; 10 mg/kg BID, 12 or 24 hpi, 4 dpi): did not exhibit reduced viral titers
- body weight compared to vehicle-treated mice ([9]; 30 mg/kg BID initiated at 12 hpi): increased weight
- virus lung titers and gross lung pathology ([9]; 30 mg/kg BID, irrespective of initiation time (12 or 24 hpi), 4 dpi): reduced virus lung titers and gross lung pathology
- acute lung injury scores (ATS and DAD) ([9]; 30 mg/kg initiated 24 hpi, 4 dpi): reductions in DAD scores only
- acute lung injury scores (ATS and DAD) ([9]; 30 mg/kg initiated at 12 hpi, 4 dpi): reduced acute lung injury scores with both scoring tools
- infectious virus production (PFU in apical washes) [10]: dose-dependent reduction in infectious virus production
- intact GS-5245 prodrug in plasma [11]: No intact GS-5245 prodrug was observed at any timepoint sampled
- infectious virus production (PFU in apical washes) [12]: dose-dependent reduction in infectious virus production
- cytotoxicity [13]: without cytotoxicity

Compound: N#C[C@@]1(c2ccc3c(N)ncnn23)O[C@H](CO)[C@@H](O)[C@H]1O [GS-441524]
- oral bioavailability [14]: low bioavailability
- cytotoxicity [3]: without cytotoxicity
- EC50 [4]: 4600 nM

Compound: CC(C)(C)[C@H](NC(=O)C(F)(F)F)C(=O)N1C[C@H]2[C@@H]([C@H]1C(=O)N[C@H](C#N)C[C@@H]1CCNC1=O)C2(C)C [nirmatrelvir]
- EC50 [4]: 70 nM

Compound: CCC(CC)COC(=O)[C@H](C)N[P@](=O)(OC[C@H]1O[C@@](C#N)(c2ccc3c(N)ncnn23)[C@H](O)[C@@H]1O)Oc1ccccc1 [remdesivir]
- cytotoxicity [3]: without cytotoxicity
- EC50 [4]: 190 nM
